US12384779B2, “Bicyclic compounds” (Aligos Therapeutics, Inc., priority 2022, dated 2025)

Legend:
HBV = experiment: HBV-DNA antiviral assay using HepG2.117 cells (intracellular HBV DNA by qPCR); type: cell-based, genotype D HBV; conditions: Hepatitis B virus, 72 h, HBV DNA inhibition, 3 days incubation
Protocol: (§1) The following assay procedure describes the HBV antiviral assay, using HepG2.117 cells, which carry a stably integrated genotype D HBV genome under the control of a Tet-off promoter, and intracellular HBV DNA quantification as endpoint. Cell viability is assessed in parallel by measuring the intracellular ATP content using CellTiter-Glo 2.0 (Promega).
(§2) On day 0, HepG2.117 cells (which are maintained in routine cell culture with doxycycline present in the medium at a final concentration of 1 μg/mL) are seeded in 96-well plates (white with clear bottom) at a density of 2.0×10^4 cells/well (0.1 mL/well) in medium without doxycycline to induce pgRNA transcription and subsequent formation of HBV particles. The cells are incubated at 37° C. and 5% CO2.
(§3) On day 1, medium is removed from each well, the test articles are diluted in culture medium without doxcycyline and 100 μL was added to cell culture wells (9 concentrations, 4-fold dilution). For each plate, 6 untreated (merely DMSO) wells are included. The final concentration of DMSO in the culture medium is 2%. Each plate is prepared in duplicate (one for HBV DNA extraction, one for CellTiter-Glo 2.0 measurement). The cells are incubated at 37° C. and 5% CO2 for 3 days.
(§4) On day 4, cell viability is assessed using CellTiter-Glo 2.0 and cell lysates are prepared for HBV DNA extraction and subsequent quantification by qPCR.
Medium is removed from each well and 100 μL of 0.33% NP-40 in H2O was added to each well. Plates are sealed, incubated at 4° C. for 5 mins, vortexed extensively and centrifuged briefly. Next, 35 μL of lysate is added to 65 μL QuickExtract DNA Extraction Solution (Epicentre) in a PCR plate for each well. PCR plate is incubated at 65° C. for 6 mins, 98° C. for 2 mins and finally cooled to 4° C. HBV DNA is then quantified by qPCR with HBV-specific primers and probes as specified in Table 2 using the Bio-Rad SSOAdvanced Universal Probes Supermix on a CFX96 machine (Bio-Rad). The PCR cycle program consisted of 95° C. for 3 mins, followed by 40 cycles at 95° C. for 10 sec and 60° C. for 30 sec.
A DNA standard is prepared by dilution of an IDT gBlock corresponding to the amplicon with concentrations ranging from 10^2 to 10^8 copies/input (i.e., per 4 μL) and used to generate a standard curve by plotting Cq values vs. HBV DNA standard concentration. The quantity of HBV DNA in each sample is determined by interpolating from the standard curve.
(§5) Cell viability is calculated as follows: % Cell viability=(luminescence value of test sample)/(average luminescence value of 2% DMSO control)×100%. HBV DNA inhibition was calculated as follows: 100−(HBV DNA copy number of test sample)/(average HBV DNA copy number of 2% DMSO control)×100%. No normalization to entecavir is required due to the excellent dynamic window of this assay. The CC50, EC50 and EC90 values were determined by dose-response curves fitted using non-linear regression.

[1] = Cell viability by CellTiter-Glo 2.0 (intracellular ATP) in HepG2.117 cells; type: cell-based; conditions: human, CellTiter-Glo 2.0, 3 days incubation
Protocol: as §1, §2, §3, §4
Using the other plates, the cell viability is quantified by CellTiter-Glo 2.0 according to the manufacturer's manual. In brief, 100 μL of reagent solution is added to the culture plates and shaken for 2′. The plates are incubated at rt for 10 min and luminescence signal is subsequently measured on a VarioSkan Lux (ThermoFisher) plate reader.
as §5

Row | Structure (SMILES) | EC50 (HBV) [nM] | CC50 at 3 days [1] [nM]
1 | CNC(=O)c1ccc(-n2c(-n3nc(C4CC4)cc3C)nc3c(c2=O)C[C@@H](C)N(C(=O)c2ccc(Br)c(C(F)(F)F)c2)C3)cc1 [Compound 3, (R)-4-(7-(4-bromo-3-(trifluoromethyl)benzoyl)-2-(3-cyclopropyl-5-methyl-1H-pyrazol-1-yl)-6-methyl-4-oxo-5,6,7,8-tetrahydropyrido[3,4-d]pyrimidin-3(4H)-yl)-N-methylbenzamide] | ≤ 50 | > 50000
2 | CNC(=O)c1ccc(-n2c(-n3nc(C#N)cc3C)nc3c(c2=O)C[C@@H](C)N(C(=O)c2ccc(Br)c(C(F)(F)F)c2)C3)cc1 [Compound 1, (R)-4-(7-(4-bromo-3-(trifluoromethyl)benzoyl)-2-(3-cyano-5-methyl-1H-pyrazol-1-yl)-6-methyl-4-oxo-5,6,7,8-tetrahydropyrido[3,4-d]pyrimidin-3(4H)-yl)-N-methylbenzamide] | ≤ 50 | > 50000
3 | CNC(=O)c1ccc(-n2c(-n3nc(C(C)(C)C)cc3C)nc3c(c2=O)C[C@@H](C)N(C(=O)c2ccc(Br)c(C(F)(F)F)c2)C3)cc1 [Compound 6] | ≤ 50 | 41800
4 | [2H]c1c(C)nn(-c2nc3c(c(=O)n2-c2ccc(C(=O)NC)cc2)C[C@@H](C)N(C(=O)c2ccc(Br)c(C(F)(F)F)c2)C3)c1C [Compound 12] | ≤ 50 | > 50000
5 | CNC(=O)c1ccc(-n2c(-n3nc(C)cc3C(C)C)nc3c(c2=O)C[C@@H](C)N(C(=O)c2ccc(Br)c(C(F)(F)F)c2)C3)cc1 [Compound 8] | ≤ 50 | > 50000
6 | CNC(=O)c1ccc(-n2c(-n3nc(C)c(C)c3C)nc3c(c2=O)C[C@@H](C)N(C(=O)c2ccc(Br)c(C(F)(F)F)c2)C3)cc1 [Compound 9] | 50 to 500 | > 5000
7 | CCc1cc(CC)n(-c2nc3c(c(=O)n2-c2ccc(C(=O)NC)cc2)C[C@@H](C)N(C(=O)c2ccc(Br)c(C(F)(F)F)c2)C3)n1 [Compound 4] | ≤ 50 | > 50000
8 | CNC(=O)c1ccc(-n2c(-n3nc(C(=O)N(C)C)cc3C)nc3c(c2=O)C[C@@H](C)N(C(=O)c2ccc(Br)c(C(F)(F)F)c2)C3)cc1 [Compound 11] | 50 to 500 | > 50000
9 | CNC(=O)c1ccc(-n2c(-n3cc4c(n3)CCCC4)nc3c(c2=O)C[C@@H](C)N(C(=O)c2ccc(Br)c(C(F)(F)F)c2)C3)cc1 [Compound 10] | ≤ 50 | > 50000
10 | CNC(=O)c1ccc(-n2c(-n3nc(C(F)(F)F)cc3C)nc3c(c2=O)C[C@@H](C)N(C(=O)c2ccc(Br)c(C(F)(F)F)c2)C3)cc1 [Compound 5] | ≤ 50 | > 500
11 | CNC(=O)c1ccc(-n2c(-n3nc(C(C)C)cc3C)nc3c(c2=O)C[C@@H](C)N(C(=O)c2ccc(Br)c(C(F)(F)F)c2)C3)cc1 [Compound 7] | ≤ 50 | > 50000
12 | CNC(=O)c1ccc(-n2c(-n3nc(C)cc3C#N)nc3c(c2=O)C[C@@H](C)N(C(=O)c2ccc(Br)c(C(F)(F)F)c2)C3)cc1 [Compound 2, (R)-4-(7-(4-bromo-3-(trifluoromethyl)benzoyl)-2-(5-cyano-3-methyl-1H-pyrazol-1-yl)-6-methyl-4-oxo-5,6,7,8-tetrahydropyrido[3,4-d]pyrimidin-3(4H)-yl)-N-methylbenzamide] | ≤ 50 | 29200
